Experimental data: BigSolDB 2.1

What does the source list for CC(=O)Nc1ccc(O)cc1?
solubility (mole fraction) (in ethanol, 284.49 K): 0.0444; solubility (mole fraction) (in ethanol, 288.38 K): 0.0471; solubility (mole fraction) (in ethanol, 293.54 K): 0.0508; solubility (mole fraction) (in ethanol, 295.69 K): 0.0539; solubility (mole fraction) (in isopropanol, 273.5 K): 0.0256; solubility (mole fraction) (in isopropanol, 289.99 K): 0.0372; solubility (mole fraction) (in isopropanol, 302.5 K): 0.0473; solubility (mole fraction) (in n-octanol, 262.78 K): 0.0057; solubility (mole fraction) (in n-octanol, 275.42 K): 0.0082; solubility (mole fraction) (in n-octanol, 285.72 K): 0.0104; solubility (mole fraction) (in n-octanol, 301.15 K): 0.0151

What does the source list for CN=C(NC#N)NCCSCc1nc[nH]c1C?
solubility (mole fraction) (in ethanol, 297.26 K): 0.005; solubility (mole fraction) (in ethanol, 306.76 K): 0.0081; solubility (mole fraction) (in ethanol, 309.1 K): 0.0091; solubility (mole fraction) (in ethanol, 311.34 K): 0.0101; solubility (mole fraction) (in methanol, 281.04 K): 0.0082; solubility (mole fraction) (in methanol, 285.25 K): 0.0098; solubility (mole fraction) (in methanol, 289.65 K): 0.0119; solubility (mole fraction) (in methanol, 292.46 K): 0.0138; solubility (mole fraction) (in methanol, 296.7 K): 0.0166

For CC(=O)Oc1ccccc1C(=O)O, which solubility (mole fraction) (in ethanol, 274.95 K) is on record?
The solubility (mole fraction) was 0.0246.

What about the solubility (mole fraction) (in ethanol, 292.45 K) of the same compound?
Its solubility (mole fraction) is 0.0487.

What about the solubility (mole fraction) (in isopropanol, 274.9 K) of the same compound?
The solubility (mole fraction) was 0.0163.

What about the solubility (mole fraction) (in isopropanol, 281.7 K) of the same compound?
Its solubility (mole fraction) is 0.0223.

What about the solubility (mole fraction) (in isopropanol, 283.75 K) of the same compound?
The solubility (mole fraction) was 0.0245.

What about the solubility (mole fraction) (in n-octanol, 272.14 K) of the same compound?
Its solubility (mole fraction) is 0.01.

And the solubility (mole fraction) (in n-octanol, 281.45 K)?
The solubility (mole fraction) was 0.0152.

What about the solubility (mole fraction) (in n-octanol, 291.53 K) of the same compound?
Its solubility (mole fraction) is 0.0235.

What about the solubility (mole fraction) (in n-octanol, 307.12 K) of the same compound?
Its solubility (mole fraction) is 0.0434.
